Test results published in ChEMBL document CHEMBL3988442, “University of Dundee, Small-Polar-MMV Screening Library” (2021).
Several values for one entry are separate records, joined by “and”; a condition that tells them apart may be missing. Equal entries are not always repeated.

Columns and labels:
[1] = target: Polyketide synthase Pks13 (Mycobacterium tuberculosis (strain ATCC 25618 / H37Rv), UniProt I6X8D2); assay: Mycobacterium tuberculosis Polyketide synthase 13 Thioesterase (PKS13); format: functional
[2] = target: ClpP1P2 (Mycobacterium tuberculosis (strain ATCC 25618 / H37Rv), UniProt P9WPC3+P9WPC5); assay: in vitro assay to detect presence of AMC directly proportional to the activity of ClpP1P2. GHDDI collaboration.; format: functional
[3] = microbe, parasite or virus in culture; settings: Mycobacterium tuberculosis, 96 h, read-out: pIC50 (converted)
[4] = microbe, parasite or virus in culture; settings: Mycobacterium tuberculosis, 72 h, read-out: pIC50 (converted)
[5] = tested on: Plasmodium falciparum; assay: Calibr Malaria Delayed Death Assay SOP; format: functional, organism-based; settings: for IC50: Plasmodium falciparum

ClpP1P2, sequence (P9WPC5 whole entry): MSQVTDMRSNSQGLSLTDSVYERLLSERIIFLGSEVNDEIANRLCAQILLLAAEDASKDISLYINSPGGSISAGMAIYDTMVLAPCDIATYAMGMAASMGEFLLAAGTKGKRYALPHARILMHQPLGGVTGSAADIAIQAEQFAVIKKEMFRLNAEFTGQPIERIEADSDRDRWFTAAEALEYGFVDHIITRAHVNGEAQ
ClpP1P2, sequence (P9WPC3 whole entry): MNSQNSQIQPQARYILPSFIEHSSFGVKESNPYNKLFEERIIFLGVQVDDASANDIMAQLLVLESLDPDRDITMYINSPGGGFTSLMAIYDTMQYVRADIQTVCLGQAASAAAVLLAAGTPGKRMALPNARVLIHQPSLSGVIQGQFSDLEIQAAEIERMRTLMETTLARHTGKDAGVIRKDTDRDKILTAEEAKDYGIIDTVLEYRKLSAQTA
Polyketide synthase Pks13, sequence (I6X8D2 whole entry): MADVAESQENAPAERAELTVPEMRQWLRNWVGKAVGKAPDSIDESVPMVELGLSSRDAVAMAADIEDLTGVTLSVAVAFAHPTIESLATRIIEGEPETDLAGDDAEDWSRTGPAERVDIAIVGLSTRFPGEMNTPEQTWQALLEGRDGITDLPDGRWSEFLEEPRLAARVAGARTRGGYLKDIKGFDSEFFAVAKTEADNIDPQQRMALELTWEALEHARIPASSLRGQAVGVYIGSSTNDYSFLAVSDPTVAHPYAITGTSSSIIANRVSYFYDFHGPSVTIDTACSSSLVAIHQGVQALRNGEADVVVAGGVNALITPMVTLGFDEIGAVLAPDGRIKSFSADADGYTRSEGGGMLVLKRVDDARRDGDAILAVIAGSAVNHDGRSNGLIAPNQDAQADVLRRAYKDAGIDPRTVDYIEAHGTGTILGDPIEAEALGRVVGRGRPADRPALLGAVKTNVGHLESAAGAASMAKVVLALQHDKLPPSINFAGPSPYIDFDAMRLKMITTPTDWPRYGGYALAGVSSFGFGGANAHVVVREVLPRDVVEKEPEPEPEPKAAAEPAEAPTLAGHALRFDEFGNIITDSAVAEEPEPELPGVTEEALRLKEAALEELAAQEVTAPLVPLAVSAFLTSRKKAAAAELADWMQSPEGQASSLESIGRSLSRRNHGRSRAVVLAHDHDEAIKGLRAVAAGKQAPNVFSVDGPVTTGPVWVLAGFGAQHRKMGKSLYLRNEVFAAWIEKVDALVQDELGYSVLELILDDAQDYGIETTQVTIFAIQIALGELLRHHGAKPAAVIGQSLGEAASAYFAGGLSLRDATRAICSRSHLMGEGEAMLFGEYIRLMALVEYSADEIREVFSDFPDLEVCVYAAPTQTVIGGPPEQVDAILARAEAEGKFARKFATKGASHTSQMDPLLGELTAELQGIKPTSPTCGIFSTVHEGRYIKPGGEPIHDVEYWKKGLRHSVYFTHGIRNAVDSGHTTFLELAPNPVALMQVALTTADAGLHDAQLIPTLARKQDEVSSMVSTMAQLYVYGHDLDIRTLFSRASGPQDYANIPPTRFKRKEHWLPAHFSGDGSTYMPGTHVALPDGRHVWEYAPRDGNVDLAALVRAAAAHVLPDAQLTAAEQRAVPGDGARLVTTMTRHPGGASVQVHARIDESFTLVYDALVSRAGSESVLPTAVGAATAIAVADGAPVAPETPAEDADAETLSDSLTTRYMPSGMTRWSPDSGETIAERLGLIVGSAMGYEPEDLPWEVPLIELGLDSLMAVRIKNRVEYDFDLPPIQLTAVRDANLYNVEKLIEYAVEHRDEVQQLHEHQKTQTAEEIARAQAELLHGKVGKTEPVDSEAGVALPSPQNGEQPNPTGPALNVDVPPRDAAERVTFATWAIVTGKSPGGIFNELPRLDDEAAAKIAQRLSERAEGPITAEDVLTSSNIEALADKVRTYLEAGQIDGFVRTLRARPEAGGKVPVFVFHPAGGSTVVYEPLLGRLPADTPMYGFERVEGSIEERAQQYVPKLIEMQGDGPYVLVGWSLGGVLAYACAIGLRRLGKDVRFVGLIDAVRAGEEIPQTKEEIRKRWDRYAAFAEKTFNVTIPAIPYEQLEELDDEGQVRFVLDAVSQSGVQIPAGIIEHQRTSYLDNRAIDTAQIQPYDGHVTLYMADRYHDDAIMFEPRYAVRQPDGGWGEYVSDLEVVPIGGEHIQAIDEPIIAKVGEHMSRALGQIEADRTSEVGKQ

| Compound | IC50 [1] | IC50 [2] | further results |
| --- | --- | --- | --- |
| Cc1nc(-c2ccc(Cl)s2)sc1C(=O)NCCCC(N)=O | > 100 µM and 15.1 µM | > 100 µM |  |
| CN(C)C(=O)c1cnc(-c2ccc3c(c2)OCO3)s1 | 11.1 µM and 8.56 µM | > 100 µM |  |
| CNC(=O)c1cc2c(nc1NCC(C)C)CCN(c1ccncn1)CC2 | 25.7 µM and 29.5 µM | > 100 µM |  |
| Cc1nc(C)n(C2CCCN(C(=O)c3nc(C)n4ccccc34)C2)n1 (stereo not given) | 8.78 µM and 12.7 µM | > 100 µM |  |
| CC(CN1CCCC1=O)NC(=O)c1ccc(-c2ccco2)[nH]c1=O (stereo not given) | 7.52 µM and 13.7 µM | > 100 µM |  |
| COC(=O)CNC(=O)c1nc(-c2ccccc2OC)c2cnccn12 | 79.6 µM and > 100 µM | > 100 µM |  |
| O=c1[nH]c(NC2CCCC2)nc2nccc(-c3ccco3)c12 | > 100 µM | > 100 µM |  |
| CC(O)CN1CCC(CNCc2c[nH]nc2C(C)(C)C)CC1 (stereo not given) | > 100 µM |  | IC50 [3]: 35.4 µM; IC50 [4]: 45.6 µM |
| CS(=O)(=O)c1ccc(-c2nc(C(=O)N3CCCC3)n3ccccc23)cc1 | 12.3 µM and 12.9 µM | > 100 µM |  |
| COCc1noc(-c2ccc(N(C)Cc3ccc(C)o3)nc2)n1 | > 100 µM |  | IC50 [3]: 18.1 µM |
| CC(C)Nc1nc2c(cc1C(=O)NCC1CC1)CCNCC2 | 19.7 µM and 19.3 µM | > 100 µM |  |
| COc1cnc(N2CCN(C)CC2)nc1-c1ccnn1C | 23.7 µM and 24.9 µM | > 100 µM |  |
| Cc1nc(-c2ccc(Cl)s2)sc1C(=O)NC(C)(C)C(N)=O | > 100 µM and 21.1 µM | > 100 µM |  |
| CC(C)Nc1nc2c(cc1C(=O)NCC1CC1)CCN(C)CC2 | 30.6 µM and 15.6 µM | > 100 µM |  |
| CNC(=O)c1cc2c(nc1NCC1CC1)CCN(S(C)(=O)=O)CC2 | 14.8 µM and 22.2 µM | > 100 µM |  |
| Cc1cc(C)c2cc(CNC(C)C)c3nn(C)c(=O)n3c2c1 | 17 µM and 18.4 µM | > 100 µM |  |
| COc1ccc(CC(C)Nc2cccc(SC)c2)cc1 (stereo not given) | 24.5 µM and 22 µM |  | IC50 [3]: 45.4 µM; IC50 [4]: > 50.1 µM |
| CCOc1cc(C(=O)n2cc(C)cn2)cc(OCC)c1OCC | 19.9 µM and 11.2 µM |  | IC50 [3]: > 50.1 µM; IC50 [4]: 29.7 µM |
| COC(=O)CNC(=O)c1sc(-c2ccc(Cl)s2)nc1C | 22.3 µM and > 100 µM | > 100 µM |  |
| O=c1[nH]c(NCCCO)nc2c1C1(CCCC1)Cc1ccccc1-2 | 24.5 µM and 29.7 µM | > 100 µM |  |
| CN1CCC(NC(=O)c2cc(F)cc(Cl)c2O)C1=O (stereo not given) | 40.1 µM and 21.4 µM | > 100 µM |  |
| CC(C)(CO)CNC(=O)c1cc(-c2cc[nH]n2)n2ccccc12 | 22.5 µM and 17.5 µM | > 100 µM |  |
| Cn1cnc(-c2nc(C(=O)NCCN3CCOCC3)c3ccccn23)c1 | 15.6 µM and 34.1 µM | > 100 µM |  |
| CCC1(CC)Cc2ccccc2-c2nc(NCCCO)[nH]c(=O)c21 | 21.9 µM and 23.7 µM | > 100 µM |  |
| Cn1cnc(-c2nc(C(=O)NC3CC3)c3ccccn23)c1 | 73.2 µM and 16.1 µM | > 100 µM |  |
| CC(C)Nc1nc2c(cc1C(=O)NCC1CC1)CCN(CC1CC1)CC2 | 14.7 µM and 35.6 µM | > 100 µM |  |
| O=C(O)c1cn(-c2ccccn2)c(=O)c2ccccc12 | 8.93 µM and 20.5 µM | > 100 µM |  |

| Compound | IC50 [1] | IC50 [2] | further results |
| --- | --- | --- | --- |
| Cc1nc(C(=O)N(C)CC(F)(F)C(F)(F)F)c2ccccn12 | > 57.5 µM and 27.2 µM | > 100 µM |  |
| CNC(=O)c1cc2c(nc1NCC(C)C)CCN(CC1CC1)CC2 | 21 µM and 28.8 µM | > 100 µM |  |
| CCOC(=O)N1CCN(C(=O)C2CC(=O)N(c3ccccc3Br)C2)CC1 (stereo not given) | 19.4 µM and 22.4 µM |  | IC50 [3]: 9.89 µM; IC50 [4]: 39.8 µM |
| CCc1n[nH]c(C2CN(C(=O)c3nc(C)n4ccccc34)CCO2)n1 (stereo not given) | 18.2 µM and 11.7 µM | > 100 µM |  |
| CN(C)S(=O)(=O)c1ccc(-c2nc(C#N)c(NC3CC3)o2)o1 | 12.2 µM and 13.6 µM | > 100 µM |  |
| Cc1nn(C)cc1C1=NS(=O)(=O)N(C)C(C(=O)Nc2ccc(Br)cc2)=C1 | 28.6 µM and 36.6 µM |  | pIC50 [5]: 6.699; IC50 [5]: 0.238 µM |
| O=C(c1cnc2c(cnn2C2CCCC2)c1)N1CCN(CCO)CC1 | > 100 µM |  |  |
| CN1CC2(CCCN(Cc3nnc(-c4ccco4)o3)CC2)OC1=O (stereo not given) | > 100 µM |  |  |
| COc1cccc(CN2CCC3(COCc4cnc(N(C)C)nc43)C2)c1 (stereo not given) | > 100 µM |  | IC50 [3]: > 50.1 µM; IC50 [4]: > 50.1 µM |
| CNc1cncc(C2CCCN2c2cc(C)ncn2)n1 (stereo not given) | 20.5 µM and 30.5 µM |  |  |
| Cc1n[nH]c(C)c1CCC(=O)NCC1(O)CCN(c2ccccn2)C1 (stereo not given) | > 100 µM |  |  |
| COc1ccc(NC(C)C(=O)N2CCCC2)cn1 (stereo not given) | > 100 µM |  |  |
| NC(=O)N1CCCN(CCc2nc(-c3cccc(Cl)c3)no2)CC1 | > 100 µM |  |  |
| Cn1ccc(C(=O)NC2CCN(c3ncccn3)CC2)cc1=O | > 100 µM |  |  |
| CCc1cnc(N2CC[C@H]3[C@@H]2CCC(=O)N3CC2CCOCC2)nc1 | > 100 µM |  |  |
| CC1(NC(=O)Cc2csc(NC(=O)c3ccccc3)n2)CCS(=O)(=O)C1 (stereo not given) | > 100 µM |  |  |
| CCc1ccc(C(O)CN2CCN(c3cccc(OC)c3)CC2)cc1 (stereo not given) | 23.2 µM and 27.3 µM |  |  |
| CCOC(=O)CNC(=O)NCc1cc(C)n(-c2ccccc2OC)c1C | > 100 µM |  |  |
| Cc1cc(C2CCCCN2C(=O)c2ccsc2)nc2nccn12 (stereo not given) | > 100 µM |  |  |
| COc1ccc(CCC(C)Nc2cccc(SC)c2)cc1 (stereo not given) | 23 µM and 23.6 µM |  | IC50 [3]: 14.3 µM; IC50 [4]: 14.1 µM |
| Cc1ccc(C(=O)N2CCC3(CC2)c2ccccc2[C@@H](N)[C@@H]3O)c(=O)[nH]1 | > 100 µM |  |  |
| CCc1[nH]c2c(CNc3nc(C)cc(NC)n3)cc(C)cc2c1C | > 100 µM |  | pIC50 [5]: 6.194; IC50 [5]: 0.657 µM; IC50 [3]: 30.7 µM; IC50 [4]: 23.7 µM |
| CN1CCc2ccc(NCc3cccs3)cc2C1=O | > 100 µM |  |  |
| COc1ccc(C2CCCN2C(=O)c2cc3c([nH]c2=O)CCC3)cc1 (stereo not given) | 31.9 µM and 34.5 µM |  |  |
| CCN(CC)C(=O)c1cc(C2CCCN2C)ccn1 (stereo not given) | > 100 µM |  |  |
| Cc1ccc(CN2CCCC(c3nn(C)c4nccnc34)C2)s1 (stereo not given) | > 100 µM |  |  |
| NC(=O)CSc1nccc(-c2ccc3c(c2)OCO3)n1 | 20 µM and 18.9 µM |  |  |

| Compound | IC50 [1] | IC50 [2] | further results |
| --- | --- | --- | --- |
| CC(NC(=O)N1CCC(CO)CC1)c1csc2ccccc12 (stereo not given) | > 100 µM |  |  |
| COc1ccc2[nH]cc(-c3ccnc(N4CCC(C)CC4)n3)c2c1 | 33.7 µM and 30 µM |  |  |
| CCOc1ccc2nc(CN3CCOC(CN)C3)ccc2c1 (stereo not given) | > 100 µM |  |  |
| N#Cc1nccnc1N1CCC(CSc2ccccc2)C1 (stereo not given) | 18.6 µM and 20.2 µM |  | IC50 [3]: 4.96 µM; IC50 [4]: 18.9 µM |
| CNc1cncc(C2CCCN2C(=O)Cn2c(=O)oc3ccccc32)n1 (stereo not given) | 30.2 µM and > 57.5 µM |  |  |
| Cc1cc(C)n(-c2cncc(NCCC(=O)NC(C)C)n2)n1 | 24.1 µM and 15.2 µM |  |  |
| CN(CC1CCCCC1)C(=O)c1ccc(-n2ncc(C#N)c2N)cc1 | 40.8 µM and 6.64 µM |  |  |
| COc1cccc(N2CCN(C(=O)C(O)c3ccccc3Cl)CC2=O)c1 (stereo not given) | > 100 µM |  |  |
| O=C(OCC1CCN(c2ccccc2)C1)c1cscn1 (stereo not given) | 29.9 µM and 4.14 µM |  |  |
| Cn1cncc1-c1nnc([C@H]2CCN(Cc3ncc[nH]3)C2)o1 | > 100 µM |  |  |
| N#Cc1cc(C#N)c(SCC(=O)Nc2ccc(F)cc2)nc1N | 19.3 µM and 21.8 µM |  |  |
| Cc1nnsc1C(=O)N1CC[C@H](c2ccccc2)[C@@H]2[C@H]1CCCCN2C | > 100 µM |  |  |
| Cc1nc2c(Nc3cccc(C#N)c3)nc(N)nc2n1C | > 100 µM |  | IC50 [3]: 4.14 µM; IC50 [4]: 3.75 µM |
| c1cnc(N2CCC3(CCCN(CC4CCCCC4)C3)C2)cn1 (stereo not given) | > 100 µM |  |  |
| O=C(COCc1ccccc1Cl)N1CCN(c2ccc(Br)cn2)CC1 | 26.1 µM and 19.2 µM |  |  |
| COc1cccc(C(=O)N2CCc3c(nc(N)[nH]c3=O)C2)c1C | > 100 µM |  |  |
| O=C1CCCN1Cc1ncn2c1CN(C(=O)NC1CCCC1)CCC2 | > 100 µM |  |  |
| Cn1cc(C[C@H]2[C@H](N3CCOCC3)CCN2c2ncc(F)cn2)cn1 | > 100 µM |  |  |
| CC1=N[C@@]2(CC[C@@H]3CN(S(C)(=O)=O)C[C@@H]32)C(=O)N1CC(C)C | > 100 µM |  |  |
| c1csc(-c2noc(CCCN3CCCC3Cn3cncn3)n2)c1 (stereo not given) | > 100 µM |  |  |
| Cc1n[nH]c(C)c1CCN(C)c1ccc(-c2nc(C3CC3)no2)cn1 | > 100 µM |  |  |
| Cc1noc([C@@H]2C[C@H]3OCC[C@H]3N(S(=O)(=O)c3cccnc3)C2)n1 | > 100 µM |  |  |
| Cn1ncc2c1CN(Cc1cccnc1)CC2COCC1CC1 (stereo not given) | > 100 µM |  |  |
| CCc1nc2n(n1)CC(NCc1ncc(-c3ccccc3)o1)CC2 (stereo not given) | > 100 µM |  |  |
| COc1ccccc1N1CCC(CNS(=O)(=O)c2cccs2)C1 (stereo not given) | 10.3 µM and 4.51 µM |  |  |
| Cc1csc2ncc(-c3ccnc(N4CCCC4)n3)c(=O)n12 | > 100 µM |  |  |
